Experimental data as given in patent US20040214809A1, “Stabilized silver-ion sulfite complex compositions and methods” (BioInterface Technologies, Inc., priority 2003, published 2004).

Key:
S. aureus (ATCC 29213) = test: Filter disc zone of inhibition on tryptic soy agar; format: cell-based; details: 7 mm filter disc soaked with solution (equivalent of 1% silver nitrate), 37° C. overnight, measured from disc edge, average of two trials
Protocol: (§1) Additionally, a non-stabilized silver thiosulfate complex made according to Example 5. […] Filter paper discs (7 mm diameter) were soaked with either a stabilized silver thiosulfate solution or a non-stabilized silver thiosulfate solution. The antimicrobial studies were performed by first plating S. aureus (ATCC 29213) or E. coli (ATCC 225922) on tryptic soy agar. A disc containing the stabilized thiosulfate solution or the control solution was placed one each of these microbial lawns. […] The culture plates were incubated at 37° C. overnight. The zone of microbial growth inhibition (ZOI) was measured (in millimeters) from the edge of each filter disc and the results from two trials were averaged. The larger the measured ZOI, the greater the antimicrobial effect.

E. coli (ATCC 225922) = test: Filter disc zone of inhibition on tryptic soy agar; format: cell-based; details: 7 mm filter disc soaked with solution (equivalent of 1% silver nitrate), 37° C. overnight, measured from disc edge, average of two trials
Protocol: as §1

Substance: silver nitrate [Silver Nitrate Solution]
- S. aureus Zone Of Inhibition (S. aureus (ATCC 29213)): 1.5 millimeters
- E. coli Zone Of Inhibition (E. coli (ATCC 225922)): 1.0 millimeters
